Assay results as given in patent US4772625A, “1,3-dioxan-5-yl-hexenoic acids” (Imperial Chemical Industries PLC, priority 1985, dated 1988).

Experiments:
[1] = target: T1, (Oryctolagus cuniculus, UniProt Q6WQI8); assay: Test (a): rabbit aortic strip model, TXA2 or U46619 as agonist; assay type: cell-based; conditions: comparison compound
T1 construct: functional contraction assay (pA2)
T1 sequence (Q6WQI8 1-233): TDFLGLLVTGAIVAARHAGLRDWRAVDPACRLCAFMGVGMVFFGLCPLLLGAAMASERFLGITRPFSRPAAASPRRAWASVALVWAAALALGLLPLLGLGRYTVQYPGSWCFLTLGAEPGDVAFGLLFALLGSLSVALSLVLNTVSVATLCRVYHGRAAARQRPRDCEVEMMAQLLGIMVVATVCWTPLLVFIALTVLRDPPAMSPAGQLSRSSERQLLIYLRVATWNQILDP
Procedure: (§1) (a) The rabbit aortic strip model devised by Piper and Vane (Nature, 1969, 223, 29-35) using as agonist a freshly prepared sample of TXA2, generated by addition of arachidonic acid (25 μg) to citrated, platelet rich rabbit plasma (250 μl ) and allowing the mixture to aggregate fully over 90 seconds before use; alternatively the TXA2 mimetic agent known as U46619 (described by R. L. Jones et alia in "Chemistry, Biochemistry and Pharmacological Activity of Prostanoids" edited by S. M. Roberts and F. Scheinmann, at page 211; Pergamon Press, 1979) may be used as the agonist;
(§2) Using the above test procedures (a)-(c), the following representative results have been obtained with the compounds of formula I (X=Y=H) wherein (i) R is isopropyl, (ii) R is t-butyl; or (iii) R is sec-butyl, respectively: […]

TXA2 [2] = assay: TXA2 antagonist properties (test not specified; one or other of the standard tests); conditions: qualitative statement
Source text: As stated earlier, the acids of formula I are antagonists of one or more of the actions of TXA2, for example certain of its actions on blood platelets, the vasculature and/or the lung.

[3] = tested on: U46619 induced bronchoconstriction; assay: Test (c): U46619 induced bronchoconstriction, Konzett-Rossler anaesthetised guinea-pig model; assay type: in vivo; conditions: 2 hours after oral dosing at 0.05 mg/kg
Source text: (c) a bronchoconstriction test involving measuring the inhibition by a test compound of the bronchoconstriction induced in the Konzett-Rossler, anaesthetised guinea-pig model (as modified by Collier and James, Brit. J. Pharmacol., 1967, 30, 283-307) by intravenous administration of the TXA2 mimetic agent, U46619 and involving:
(i) obtaining a cumulative dose-response curve to U46619 induced bronchoconstriction by intravenous administration of constant volumes of increasing concentrations of U46619 (0.2-4 μg/kg) in physiological saline solution and expressing bronchoconstriction as the maximum of that theoretically obtainable with no air flow to the test animal;
(ii) generating a cumulative dose-response curve to U46619 induced bronchoconstriction at 30 minute intervals for 3 hours after oral dosing of test compound; and
(iii) calculating a dose-ratio for the test compound (that is the ratio of concentration of U46619 required to cause 50% bronchoconstriction in the presence and absence of test compound) indicating the potency of TXA2 antagonism.
as §2

TXA2 [4] = target: T2, TXA2 (Oryctolagus cuniculus, UniProt Q6WQI8); assay: Test (a): rabbit aortic strip model, TXA2 or U46619 as agonist; assay type: cell-based; conditions: rabbit aortic strip, ±0.05
T2 construct: functional contraction assay (pA2)
T2 sequence (Q6WQI8 1-233): T1 sequence (Q6WQI8 1-233)
Procedure: as §1, §2

[5] = tested on: U46619 induced hypertension; assay: Test (d): U46619 induced hypertension in anaesthetised rats; assay type: in vivo, rat (Alderley Park strain)
Procedure: (d) Male rats (Alderley Park strain) are anaesthetised with sodium pentobarbital and blood pressure is monitored at the carotid artery. The TXA2 mimetic agent U46619 is administered intravenously via the jugular vein at 5 μg/kg to induce a 20-30 mmHg (2640-3940 pascal) increase in systolic blood pressure. The process is repeated twice to ensure adequacy of response. A test compound is then administered either intravenously (via the jugular vein) or orally (via a cannula) directly into the stomach and the animal is challenged with U46619, five minutes after dosing with test compound and then successively every ten minutes until the hypertensive effect of U46619 is no longer blocked.
Similarly, using test procedure (d) referred to above, the following representative results were obtained on inhibition of U46619 induced hypertension with the compounds of formula I referred to above: […]

[6] = target: T3, U46619 stimulated platelet aggregation (Homo sapiens, UniProt P21731); assay: Test (b): blood platelet aggregation test, human citrated platelet-rich plasma, U46619 stimulated; assay type: cell-based
T3 construct: aggregating human, citrated, platelet-rich plasma; from tissue; host or cells: human citrated platelet-rich plasma (platelets)
T3 sequence (P21731 1-343): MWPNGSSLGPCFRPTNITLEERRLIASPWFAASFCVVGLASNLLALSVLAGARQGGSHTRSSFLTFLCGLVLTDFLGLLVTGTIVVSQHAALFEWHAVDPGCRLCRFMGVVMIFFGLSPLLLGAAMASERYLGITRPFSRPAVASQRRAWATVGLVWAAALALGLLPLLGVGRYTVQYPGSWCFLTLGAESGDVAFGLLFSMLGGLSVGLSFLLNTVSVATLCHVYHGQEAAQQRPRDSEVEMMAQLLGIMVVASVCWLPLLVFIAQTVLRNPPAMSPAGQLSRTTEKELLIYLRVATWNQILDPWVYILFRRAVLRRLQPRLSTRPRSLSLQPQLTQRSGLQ
Source text: (b) a blood platelet aggregation test based on that described by Born (Nature, 1962, 194, 927-929) and involving:
(i) aggregating human, citrated, platelet-rich plasma by addition of the TXA2 mimetic agent U46619 so that a dose-response curve is generated;
(ii) generating a dose-response curve for U46619 stimulated platelet aggregation in the presence of increasing amounts of test compound (generally in the range 10^-5 M to 10^-10 M); and
(iii) calculating a KB value indicating potency of TXA2 antagonism for the test compound, averaged over several concentrations, from the calculated 50% response value for U46619 aggregation in the presence and absence of test compound; and
as §2

[7] = 1 hour after oral dose of 0.5 mg/kg

Row | SMILES | pA2 [1] | TXA2 antagonist properties (TXA2 [2]) | dose ratio (U46619 bronchoconstriction) [3] | pA2 (±0.05) (TXA2 [4]) | inhibition of U46619 induced hypertension [5, 7] | Kb [6] | inhibition of U46619 induced hypertension ([5]; 1 hour after oral dose of 0.1 mg/kg)
1 | CC(C)[C@H]1OC[C@@H](C/C=C\CCCC(=O)O)[C@@H](c2ccccc2)O1 (relative stereo) [5(Z)-7-([2,4,5-cis]-2-isopropyl-4-phenyl-1,3-dioxan-5-yl)heptenoic acid, reference compound] | 5.9 | signficantly lower TXA2 antagonist properties | – | – | – | – | –
2 | CC(C)[C@H]1OC[C@@H](C/C=C\CCC(=O)O)[C@@H](c2ccccc2O)O1 (relative stereo) [compound (i), 4(Z)-6-([2,4,5-cis]-4-o-hydroxyphenyl-2-isopropyl-1,3-dioxan-5-yl)hexenoicacid] | – | – | > 75 | 7.71 | > 70% | 17.9 nM | –
3 | CC(C)(C)[C@H]1OC[C@@H](C/C=C\CCC(=O)O)[C@@H](c2ccccc2O)O1 (relative stereo) [compound (ii), 4(Z)-6-([2,4,5-cis]-2-t-butyl-4-o-hydroxyphenyl-1,3-dioxan-5-yl)hexenoic acid] | – | – | > 110 | 7.86 | – | 13.1 nM | > 75%
4 | CCC(C)C1OCC(CC=CCCC(=O)O)C(c2ccccc2O)O1 (stereo not drawn) [compound (iii), 4(Z)-6-([2,4,5-cis-]-2-sec-butyl-4-o-hydroxyphenyl-1,3-dioxan-5-yl)hexenoic acid] | – | – | > 75 | 7.80 | > 70% | 13.4 nM | –
